# Values of other authors as cited in patent publication US9078464B2 (EDIO HEALTHCARE AB, priority 2008, dated 2015).
# Conditions: in vivo
structure (smiles),measurement,value
CC(C)CCC[C@@H](C)[C@H]1CC[C@H]2[C@@H]3CC=C4C[C@@H](O)CC[C@]4(C)[C@H]3CC[C@]12C [cholesterol],absorption from the intestine,around 60%
